Measured values taken from paper PMC10402201, “CYP5122A1 encodes an essential sterol C4-methyl oxidase in Leishmania donovani and determines the antileishmanial activity of antifungal azoles” (Research Square, 2023).

Columns and labels:
CYP5122A1 = target: T1, CYP5122A1 (Leishmania donovani, UniProt A0A3S7X0B6); test: UV-Vis difference spectra (type II binding), plus BFC inhibition assay
T1 construct: gene LdCL_270005800; truncated form of XP_003861867.1 without the first 60 amino acids (transmembrane domain), N-terminal solubility tag, C-terminal His-tag
T1 sequence (A0A3S7X0B6 61-592): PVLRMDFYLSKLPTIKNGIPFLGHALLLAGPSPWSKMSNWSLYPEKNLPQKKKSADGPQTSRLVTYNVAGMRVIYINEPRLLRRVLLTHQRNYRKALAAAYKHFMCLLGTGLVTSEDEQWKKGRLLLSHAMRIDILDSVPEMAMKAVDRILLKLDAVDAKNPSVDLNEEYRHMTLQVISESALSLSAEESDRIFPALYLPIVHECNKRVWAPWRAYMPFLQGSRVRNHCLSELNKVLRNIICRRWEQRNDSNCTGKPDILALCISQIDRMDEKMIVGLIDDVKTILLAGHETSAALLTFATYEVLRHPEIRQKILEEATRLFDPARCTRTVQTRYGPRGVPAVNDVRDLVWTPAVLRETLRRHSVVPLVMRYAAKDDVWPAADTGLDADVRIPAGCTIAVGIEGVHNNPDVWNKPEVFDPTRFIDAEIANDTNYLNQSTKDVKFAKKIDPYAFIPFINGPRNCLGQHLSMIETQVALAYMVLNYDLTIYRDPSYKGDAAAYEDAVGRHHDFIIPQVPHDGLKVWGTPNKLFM

CYP51 = target: T2, CYP51 (Leishmania donovani, UniProt A0A3S7WRS7); test: as above
T2 construct: gene LdCL_110017000; truncated form of XP_003859085.1 without the first 31 amino acids (transmembrane domain), N-terminal solubility tag, C-terminal His-tag
T2 sequence (A0A3S7WRS7 32-480): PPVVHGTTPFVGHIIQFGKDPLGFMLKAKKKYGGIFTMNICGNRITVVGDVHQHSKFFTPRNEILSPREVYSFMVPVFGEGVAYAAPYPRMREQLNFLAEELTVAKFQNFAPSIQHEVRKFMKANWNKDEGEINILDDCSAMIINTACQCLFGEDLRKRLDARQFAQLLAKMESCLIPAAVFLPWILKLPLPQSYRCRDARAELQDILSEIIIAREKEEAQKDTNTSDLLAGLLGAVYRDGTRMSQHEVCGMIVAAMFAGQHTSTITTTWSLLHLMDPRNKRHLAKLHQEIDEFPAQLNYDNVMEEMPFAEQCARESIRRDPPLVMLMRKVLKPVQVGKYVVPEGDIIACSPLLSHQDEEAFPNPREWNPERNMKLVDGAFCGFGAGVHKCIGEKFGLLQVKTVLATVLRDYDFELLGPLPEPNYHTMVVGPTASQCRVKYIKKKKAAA

| Compound | UV-Vis difference spectra (type II binding), plus BFC inhibition assay (CYP5122A1) | UV-Vis difference spectra (type II binding), plus BFC inhibition assay (CYP51) |
| --- | --- | --- |
| Clc1ccccc1C(c1ccccc1)(c1ccccc1)n1ccnc1 [clotrimazole] | Clotrimazole exhibited type II binding to both CYP51 and CYP5122A1 | Clotrimazole exhibited type II binding to both CYP51 and CYP5122A1 |
| OC(Cn1cncn1)(Cn1cncn1)c1ccc(F)cc1F [fluconazole] |  | Fluconazole and voriconazole elicited type II binding with CYP51 but no specific responses with CYP5122A1 |
| C[C@@H](c1ncncc1F)[C@](O)(Cn1cncn1)c1ccc(F)cc1F [voriconazole] |  | Fluconazole and voriconazole elicited type II binding with CYP51 but no specific responses with CYP5122A1 |
